Results published in patent US20080027031A1, “Retinoids and Related Compounds for the Treatment of Neuroinflammatory Conditions, Diseases and Disorders” (KineMed, Inc., priority 2006, published 2008).
Like-named read-outs stand apart in the source and are kept apart here.

Assays:
[1] = test system: microglia; experiment: Microglial proliferation in the EAE model of multiple sclerosis (2H2O labeling); type: in vivo, mouse; conditions: female C57BL/6 mice, MOG(35-55) immunization; isotretinoin 30 mg/kg/day i.p.; 7 days 2H2O labeling
Method: FIG. 3 depicts the inhibition of Microglial Proliferation in the experimental autoimmune encephalomyelitis (EAE) model of neuroinflammation. Female c57bl/6 mice were labeled with ^2H2O for 7 days and received either sham or EAE immunizations. EAE was induced by subcutaneous injection of 100 μg synthetic MOG(35-55) peptide emulsified in 0.1 ml complete Freund's adjuvant on day 0. Pertussis toxin (400 ng) was injected intravenously on days 0 and 2. Minocycline (45 mg/kg, i.p.) was dissolved in saline and injected twice a day for the first 3 days, and once a day for the rest of the study. Accutane (30 mg/kg, i.p.) was dissolved in DMSO and injected once a day for the duration of the study. Data represent mean±SD of 5 animals per group. * Indicates significant difference (p<0.0001) between sham and EAE groups treated with vehicle, # indicates significant difference (p<0.0001) between vehicle and drug treated EAE groups. […]
Analysis of cell turnover: GC/MS analysis was used to measure ^2H incorporation from ^2H2O into the deoxyribose moiety of purine deoxyribonucleotides during de novo DNA synthesis. Genomic DNA from microglia was isolated using a DNEasy tissue kit (Qiagen, Valencia, Calif.), and processed and analyzed by GC/MS. […]

[2] = test system: EAE mice; experiment: Clinical scores for EAE symptoms in EAE induced by MOG peptide; type: in vivo, mouse
Method: Female C57BL/6 mice were immunized with MOG35-55 (EAE mice). All mice were labeled with 8% 2H2O for 1 week and received daily treatment with either vehicle or isotretinoin (10 mg/kg/day, ip). […] Data represent mean±SEM of 8 mice per group.
EAE was induced by subcutaneous injection of 100 μg synthetic MOG(35-55) peptide (QCB, Hopkinton, Mass.), emulsified in 0.1 ml complete Freund's adjuvant (CFA; incomplete Freund's adjuvant containing 4 mg/ml heat-killed M. tuberculosis H37Ra; both from Difco/Becton Dickinson), on day 0. Pertussis toxin (400 ng; List Biological) was injected intravenously on days 0 and 2. Sham-immunized animals were injected with CFA and PBS. Labeling with ^2H2O and treatment with isotretinoin (30 mg/kg/day) was initiated on the day of immunization, drug t.
Accordingly, the effect of isotretinoin was assessed on clinical symptoms of EAE during chronic treatment.

[3] = test system: microglia; conditions: for LPS-induced microglial proliferation: female C57BL/6 mice, LPS 1 mg/kg i.p. days 1, 3, 5, isotretinoin 40 mg/kg i.p. daily for 7 days, p<0.0001 vs LPS-treated animals
Method: Female c57bl/6 mice were labeled with ^2H2O for 7 days and injected with LPS (1 mg/kg, i.p.) on days 1, 3 and 5. Accutane (40 mg/kg, i.p.) was administered daily for the duration of the study. […] LPS (1 mg/kg) was given on days 1, 3, and 5 of treatment. Isotretinoin (40 mg/kg/day) and 8% ^2H2O label were given for 7 days commencing on Day 1.
Mice: All animal studies were carried out according to NIH guidelines for the care and use of laboratory animals and received prior approval by the KineMed internal animal care and use committee. 9-10 week old female C57/Bl6 mice (Taconic, Oxnard, Calif.) were housed in a climate controlled environment with a 12 hour light/dark cycle and were fed standard rodent chow and water ad libitum. For heavy water labeling, animals received a priming IP bolus of 35 ml/kg 0.9% NaCl in 99.9% ^2H2O and were maintained on 8% ^2H2O in drinking water until sacrifice.
To induce neuroinflammation, C57/Bl6 mice received 1 mg/kg E. coli LPS (L4391, Sigma Chemical, St Louis, Mo.; serotype 0111:B4; stock of 0.2 mgs/ml in PBS) IP on days 1, 3, and 5 of ^2H2O labeling and were sacrificed the morning of day 8. In order to minimize dilution of body water ^2H enrichment in animals due to the volume of injections, 5% ^2H2O solution was used as the vehicle for LPS. Isotretinoin (Sigma) was dissolved in DMSO and administered IP daily at 40 mg/kg, drug treatment was maintained throughout the labeling period.
Isolation and characterization of microglia: Anesthetized mice were transcardially perfused with ice-cold PBS (30 ml). Brains (without olfactory bulbs) were removed and kept in ice-cold PBS until processing. Tissue was passed once through a 1 mm mesh, and agitated in digestion buffer (12.5 ml of 150 mM NaCl, 5 mM KCl, 10 mM NaHCO3, 0.5 mM EDTA, 15 mM HEPES, 5 mM D-glucose, containing 0.5 mg/ml DNAse I [Roche] and 2.5 mg/ml trypsin [Sigma]) in a baffle flask for 25 minutes at 37° C. Trypsin was inactivated by the addition of 6.25 ml of media (1:1 Hams F10:DMEM, 10% FBS, 100,000 units/l penicillin G, 50 mg/l streptomycin sulfate, 2 mM L-glutamine). […]

## CC1=C(/C=C/C(C)=C/C=C/C(C)=C\C(=O)O)C(C)(C)CCC1 [isotretinoin, 13-cis-retinoic acid]
[1]
  microglial proliferation in the EAE model: dramatically inhibited
[2]; MOG35-55 immunized mice, isotretinoin 10 mg/kg/day ip from the day before immunization, untreated onset 14 days PI
  delay of onset of clinical symptoms of EAE: 1 week
[2]; between day 18 and day 25 PI vs vehicle-treated EAE mice, p<0.05, isotretinoin 10 mg/kg/day ip
  severity of clinical symptoms (clinical score) of EAE: reduced the severity of clinical symptoms significantly
[3]
  LPS-induced microglial proliferation: dramatically inhibited
[3]; listed as isotrentinoin
  LPS-induced microglial proliferation: Inhibits Microglial Proliferation
[3]; overview statement, compared with clinically established inhibitors of neuroinflammation, including minocycline and glucocorticoids
  suppression of proliferation of brain microglial cells under conditions of microglial stimulation: as potent
